# Patent publication US9241491B2, “Aerosol” (SABAN VENTURES PTY LIMITED, priority 2005, dated 2016)
# Assays:
# [1] = Maximum peroxide concentration (peroxide density) in gas phase; assay type: physicochemical; details: for maximum achievable concentration for vapour systems: no evacuation; for Max. peroxide vapour concentration: initial 35% H2O2 solution
# Spore strips = details: atmospheric pressure, below 80° C.; could not be achieved in less; cited from earlier work
smiles,measurement,setting,value
"OO [hydrogen peroxide vapour, hydrogen peroxide]",maximum achievable concentration for vapour systems,[1]; 0% humidity,2.0 mg/L
same,maximum achievable concentration for vapour systems,"[1]; 25° C., 40% RH",0.9 mg/L
same,Max. peroxide vapour concentration,"[1]; 20 ° C., 10% RH",0.97 mg/L
same,Max. peroxide vapour concentration,"[1]; 20 ° C., 20% RH",0.85 mg/L
same,Max. peroxide vapour concentration,"[1]; 20 ° C., 40% RH",0.62 mg/L
same,Max. peroxide vapour concentration,"[1]; 20 ° C., 80% RH",0.14 mg/L
same,Max. peroxide vapour concentration,"[1]; 40 ° C., 10% RH",4.13 mg/L
same,Max. peroxide vapour concentration,"[1]; 40 ° C., 20% RH",2.59 mg/L
same,Max. peroxide vapour concentration,"[1]; 40 ° C., 40% RH",2.66 mg/L
same,Max. peroxide vapour concentration,"[1]; 40 ° C., 80% RH",0.63 mg/L
same,Max. peroxide vapour concentration,"[1]; 60 ° C., 10% RH",14.4 mg/L
same,Max. peroxide vapour concentration,"[1]; 60 ° C., 20% RH",12.60 mg/L
same,Max. peroxide vapour concentration,"[1]; 60 ° C., 40% RH",9.1 mg/L
same,Max. peroxide vapour concentration,"[1]; 60 ° C., 80% RH",2.31 mg/L
same,time to sterilization,Spore strips,≥ 6 h
